From US20070213291A1, “Therapeutically useful synthetic oligonucleotides” (priority 1999, published 2007)

Legend:
[1] = test system: Jurkat human leukemia T cells; experiment: Inhibition of Jurkat human leukemia T cell proliferation (MTT reduction); type: cell-based; settings: for % INHIBITION of Jurkat human leukemia T cell proliferation: 100 μg/ml sequence, 48 h, 2.5×10^5 cells/ml; for proliferation, cell cycle arrest and apoptosis of Jurkat T cells (summary in words): M. phlei murA derived sequences
How it was run: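 Jurkat cells at 2.5×10^5 cells/ml exposed to 100 μg/ml of 2–45-base A/C/G/T sequences (0 μg/ml control) for 48 h, 37° C, 5% CO2. Viability by MTT reduction read at 570 nm.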

[2] = test system: EL-4 murine T lymphoma cells; experiment: Inhibition of EL-4 cell proliferation (MTT); type: cell-based; settings: 100 μg/ml, 48 h
Method: (§1) Cells were seeded in 6 (1 ml/well), 24 (0.5 ml/well) or 96 (0.1 ml/well) well flat-bottom microplates and were maintained at 37° C. in a 5% CO2 atmosphere. Unless stated otherwise, 2.5×10^5 cells/ml were incubated with 0 μg/ml (control) and 100 μg/ml (treated) of 2 to 45 base sequences containing A, C, G and T for 48 h.
(§2) Cell proliferation was measured using dimethylthiazol-diphenyl-tetrazolium (MTT) reduction (Mosman et al. J. Immunol. Methods 65:55, 1983). MTT was measured at a wavelength of 570 nm using a multiplate spectrophotometer reader (ELX800, Bio-TEK Instruments Inc., Winooski, Vt.).
EL-4 murine lymphoma T cells are a suspension tumor model. EL-4 murine lymphoma T cells were incubated with 6, 18, 27 and 33 base GT sequences and with a 15 base ACG sequence (Table 18).

[3] = test system: D-17 canine osteosarcoma cells; experiment: Inhibition of D-17 cell proliferation (MTT); type: cell-based; settings: 100 μg/ml, 48 h, 5×10^5 cells/ml
Method: as §1, §2
(§3) D-17 canine osteosarcoma cells and CF-51 canine mammary gland cancer cells are solid tumor models. D-17 canine osteosarcoma cells (5×10^5 cells/ml) (Table 20) and CF-51 canine mammary gland cancer cells (5×10^5 cells/ml) (Table 21) were incubated with 6, 9, 17, 27 and 33 base GT-sequences and with a 15 base ACG sequence.

[4] = test system: CF-51 canine mammary gland cancer cells; experiment: Inhibition of CF-51 cell proliferation (MTT); type: cell-based; settings: 100 μg/ml, 48 h, 5×10^5 cells/ml
Method: as §1, §2, §3

[5] = test system: Jurkat human leukemia T cells; experiment: Cell cycle stage in Jurkat cells (propidium iodide flow cytometry); type: cell-based; settings: Jurkat; for % of cells in phase: G0/G1 / % of cells in phase: G2/M / % of cells in phase: SE / % of cells in phase: SL / % of cells in phase: SM / Arrest (cell cycle): 24 h, 100 μg/ml; for cell cycle arrest: M. phlei murA derived sequences
How it was run: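 Exponentially growing Jurkat cells were exposed for 24 h to 2–45-base A/C/G/T oligonucleotides, or at 1×10^6 cells/ml to 6-base GT and AC strands, alone (heated 10 min, 65 °C) or hybridized 1:1. Detergent-, trypsin-, RNase- and spermine-treated nuclei were propidium iodide-stained and scored for G0/G1, early/mid/late S and G2/M by doublet-discriminating flow cytometry.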

[6] = test system: Jurkat human leukemia T cells; experiment: Apoptosis by phosphatidylserine/annexin V-FITC flow cytometry; type: cell-based; settings: M. phlei murA derived sequences
How it was run: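 Jurkat cells were exposed to 3–7-base oligonucleotides (GT, ACGT, AG, GG, AGT, CGT sequences) at 50 μM. Separately, 6-base GT and complementary AC sequences, alone or hybridized 1:1 (10 min, 65 °C), were applied for 24 h. Phosphatidylserine exposure was quantified by flow cytometry with FITC-annexin V.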

caspase 3 [7] = experiment: Active caspase 3 by FITC-conjugated antibody flow cytometry; type: cell-based, human; settings: Jurkat, 72 h, 100 μg/ml, cytometric (FIG. 2A)
Method: (§4) To determine caspase activation, control and treated cells are washed, fixed, permeabilized and incubated with an FITC-conjugated antibody that recognizes the active form of the caspase (Pharmingen, San Diego, Calif.) using the conditions recommended by the manufacturer. Fluorescence associated with active caspase 3 is analyzed by flow cytometry on a FACSCALIBUR using the program CellQUEST (Becton Dickinson). Alternatively, caspase activation is determined colorimetrically using an assay based on the cleavage of a caspase-specific peptide conjugated to the color reporter molecule p-nitroanilide, which can be quantitated spectrophotometrically at a wavelength of 405 nm.
(§5) Jurkat T cell leukemia cells were incubated for 72 h with 33 base GT SEQ ID NO:66; 11 base GT SEQ ID NO:81 (bases 1-11 of GT SEQ ID NO:66), 11 base GT SEQ ID NO:82 (bases 12-22 of GT SEQ ID NO:66), 11 base GT SEQ ID NO:83 (bases 23-33 of GT SEQ ID NO:66) and 15 base ACG SEQ ID NO:67. Active caspase 3 (17-22 kDa) was determined using FITC conjugated antibody (Clone: C92-605) as in Example 28.

caspase 3 [8] = experiment: Caspase 3 activation, colorimetric (p-nitroanilide peptide cleavage); type: cell-based, human; settings: Jurkat, 72 h, 100 μg/ml
Method: as §4, §5
Caspase 3 activation also was determined colorimetrically as in Example 28.
Jurkat T cell leukemia cells were incubated for 72 h with 6 base GT SEQ ID NO:25. Caspase 3 activation was determined colorimetrically as in Example 28.

[9] = Melting temperature (Tm) of sequences; type: physicochemical
[10] = test system: MCF-7 human breast cancer cells; experiment: Inhibition of MCF-7 cell proliferation (MTT); type: cell-based
How it was run: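 Cells at 2.5×10^5 cells/ml (GT 3- and 6-base series at 5×10^5 cells/ml) treated with 100 μg/ml of 2-45-base oligonucleotide sequences versus untreated control for 48 h at 37 °C, 5% CO2. Proliferation read by MTT reduction at 570 nm.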

[11] = test system: Jurkat human leukemia T cells; experiment: NuMA release into supernatant (ELISA); type: cell-based; settings: Jurkat 1×10^6/ml
How it was run: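 Jurkat T cells (1×10^6/ml) exposed to GT-containing oligonucleotide sequences, at 50 μM in some experiments, for 24 h in some experiments. NuMA released into the supernatant quantified by commercial ELISA.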

[12] = test system: EL-4 murine T lymphoma cells; experiment: EL-4 murine T lymphoma in C57/BL6 mice; type: in vivo; settings: after 4 weeks of treatment, compared with group 1 (saline)
Method: EL-4 murine T lymphoma cells are implanted into C57/BL6 mice. The mice are divided into 6 groups of 10 mice. On day 0, group 1 mice receive saline, group 2 mice receive 3 base GT SEQ ID NO:8, group 3 mice receive 6 base SEQ ID NO:25, group 4 mice receive 6 base AG SEQ ID NO:45, group 5 mice receive 18 base GT SEQ ID NO: 18 and group 6 mice receive 27 base GT SEQ ID NO:1. After 4 weeks of treatment, the mice are sacrificed and tumor mass is determined.

[13] = 5-fluorouracil 0.1 μg/ml, alone or with sequence at 1.0 μg/ml
[14] = 5-fluorouracil 1.0 μg/ml, alone or with sequence at 1.0 μg/ml
[15] = 5-fluorouracil 10.0 μg/ml, alone or with sequence at 1.0 μg/ml
[16] = sequence at 1.0 μg/ml, 5-fluorouracil 0.0 μg/ml

AACCACAAGCCCAAC (DNA, backbone not given here) [SEQ ID NO:67]
% INHIBITION of Jurkat human leukemia T cell proliferation [1]: 4%
% INHIBITION of EL-4 murine T lymphoma cell proliferation [2]: −6%
% INHIBITION of D-17 canine osteosarcoma cell proliferation [3]: 20%
% INHIBITION of CF-51 canine mammary gland cancer cell proliferation [4]: 20%
% of cells in phase: G0/G1 [5]: 39.6%
% of cells in phase: G2/M [5]: 24.6%
% of cells in phase: SE [5]: 13.5%
% of cells in phase: SL [5]: 9.5%
% of cells in phase: SM [5]: 12.8%
Arrest (cell cycle) [5]: None
cell cycle arrest [5]: No
% at cells in apoptosis [6]: 0%
processing of inactive pro-caspase 3 to active caspase 3 (caspase 3 [7]): did not induce processing of inactive pro-caspase 3 to active caspase 3
caspase 3 activity greater than in control cells (caspase 3 [8]): approximately the same as in control cells

GGGTGGGGGTGG [SEQ ID NO:68]
% INHIBITION of Jurkat human leukemia T cell proliferation [1]: 18%
melting temperature (Tm) [9]: 56.8 °C

GGGTGGGGGTGGGGGTGG [SEQ ID NO:69]
% INHIBITION of Jurkat human leukemia T cell proliferation [1]: 5%
melting temperature (Tm) [9]: 76.3 °C

GGGTGGGGGTGGGGGTGGGGGTGG (unmodified DNA) [SEQ ID NO:70]
% INHIBITION of Jurkat human leukemia T cell proliferation [1]: 13%
melting temperature (Tm) [9]: 86.3 °C

GGTTTTGTTTG (unmodified DNA) [SEQ ID NO:82]
% INHIBITION of Jurkat human leukemia T cell proliferation [1]: 20%
proliferation, cell cycle arrest and apoptosis of Jurkat T cells (summary in words) [1]: inhibited proliferation of, induced cell cycle arrest in and induced apoptosis of Jurkat T cells
cell cycle arrest [5]: End SE
% at cells in apoptosis [6]: 25%
processing of inactive pro-caspase 3 to active caspase 3 (caspase 3 [7]): induced processing of inactive pro-caspase 3 to active caspase 3
caspase 3 activity greater than in control cells (caspase 3 [8]): 100%

GTGTGTGTGTGTGTGTGTGTGTGTGTG [SEQ ID NO:1] (chemistry not given here)
% INHIBITION of Jurkat human leukemia T cell proliferation [1]: 51%
% INHIBITION of Jurkat proliferation, 5-Fluorouracil 0.1 μg/ml [1, 13]: 15%
% INHIBITION of Jurkat proliferation, 5-Fluorouracil 1.0 μg/ml [1, 14]: 25%
% INHIBITION of Jurkat proliferation, 5-Fluorouracil 10.0 μg/ml [1, 15]: 41%
% INHIBITION of Jurkat proliferation, Cisplatin 0.1 μg/ml ([1]; cisplatin 0.1 μg/ml, alone or with sequence at 1.0 μg/ml): 18%
% INHIBITION of Jurkat proliferation, Cisplatin 1.0 μg/ml ([1]; cisplatin 1.0 μg/ml, alone or with sequence at 1.0 μg/ml): 35%
% INHIBITION of Jurkat proliferation, Cisplatin 10.0 μg/ml ([1]; cisplatin 10.0 μg/ml, alone or with sequence at 1.0 μg/ml): 76%
potentiation of antineoplastic effect of 5-fluorouracil on Jurkat T cell proliferation ([1]; sequence 1.0 μg/ml, 0.1 and 1.0 μg/ml 5-fluorouracil): potentiated
% INHIBITION of Jurkat proliferation, 5-Fluorouracil 0.0 μg/ml [1, 16]: 3%
% INHIBITION of Jurkat proliferation, Cisplatin 0.0 μg/ml ([1]; sequence at 1.0 μg/ml, cisplatin 0.0 μg/ml): 3%
% INHIBITION of MCF-7 proliferation, 5-Fluorouracil 0.1 μg/ml [10, 13]: 24%
% INHIBITION of MCF-7 proliferation, 5-Fluorouracil 1.0 μg/ml [10, 14]: 35%
% INHIBITION of MCF-7 proliferation, 5-Fluorouracil 10.0 μg/ml [10, 15]: 33%
potentiation of antineoplastic effect of 5-fluorouracil on MCF-7 cell proliferation ([10]; sequence 1.0 μg/ml, 0.1 μg/ml 5-fluorouracil): did not potentiate
potentiation of antineoplastic effect of tamoxifen on MCF-7 cell proliferation ([10]; sequence 1.0 μg/ml, 0.1 μg/ml tamoxifen): did not potentiate
% INHIBITION of MCF-7 proliferation, 5-Fluorouracil 0.0 μg/ml [10, 16]: 8%
% INHIBITION of MCF-7 proliferation, Tamoxifen 0.0 μg/ml ([10]; sequence at 1.0 μg/ml, tamoxifen 0.0 μg/ml): 8%
% INHIBITION of MCF-7 proliferation, Tamoxifen 0.1 μg/ml ([10]; tamoxifen 0.1 μg/ml, alone or with sequence at 1.0 μg/ml): 19%
% INHIBITION of MCF-7 proliferation, Tamoxifen 1.0 μg/ml ([10]; tamoxifen 1.0 μg/ml, alone or with sequence at 1.0 μg/ml): 24%
% INHIBITION of MCF-7 proliferation, Tamoxifen 10.0 μg/ml ([10]; tamoxifen 10.0 μg/ml, alone or with sequence at 1.0 μg/ml): 20%
% INHIBITION of EL-4 murine T lymphoma cell proliferation [2]: 1%
% INHIBITION of D-17 canine osteosarcoma cell proliferation [3]: 23%
% INHIBITION of CF-51 canine mammary gland cancer cell proliferation [4]: 23%
% of cells in phase: G0/G1 [5]: 40.6%
% of cells in phase: G2/M [5]: 0.3%
% of cells in phase: SE [5]: 35.6%
% of cells in phase: SL [5]: 9.3%
% of cells in phase: SM [5]: 14.2%
Arrest (cell cycle) [5]: End SE
% NUMA RELEASED [11]: 22%
tumor mass [12]: less tumor mass than group 1 mice

GTGTGTTTGGT (unmodified DNA) [SEQ ID NO:81]
% INHIBITION of Jurkat human leukemia T cell proliferation [1]: 22%
proliferation, cell cycle arrest and apoptosis of Jurkat T cells (summary in words) [1]: inhibited proliferation of, induced cell cycle arrest in and induced apoptosis of Jurkat T cells
% at cells in apoptosis [6]: 23%
processing of inactive pro-caspase 3 to active caspase 3 (caspase 3 [7]): induced processing of inactive pro-caspase 3 to active caspase 3
caspase 3 activity greater than in control cells (caspase 3 [8]): 77%

GTGTGTTTGGTGGTTTTGTTTGTTGTTTTTTTG (DNA, backbone not given here) [SEQ ID NO:66]
% INHIBITION of EL-4 murine T lymphoma cell proliferation [2]: −1%
% INHIBITION of D-17 canine osteosarcoma cell proliferation [3]: 23%
% INHIBITION of CF-51 canine mammary gland cancer cell proliferation [4]: 23%
processing of inactive pro-caspase 3 to active caspase 3 (caspase 3 [7]): induced processing of inactive pro-caspase 3 to active caspase 3
caspase 3 activity greater than in control cells (caspase 3 [8]): 105%

TTGTTTTTTTTG (unmodified DNA) [SEQ ID NO:83]
% INHIBITION of Jurkat human leukemia T cell proliferation [1]: 21%
proliferation, cell cycle arrest and apoptosis of Jurkat T cells (summary in words) [1]: inhibited proliferation of, induced cell cycle arrest in and induced apoptosis of Jurkat T cells
% at cells in apoptosis [6]: 16%
processing of inactive pro-caspase 3 to active caspase 3 (caspase 3 [7]): induced processing of inactive pro-caspase 3 to active caspase 3
caspase 3 activity greater than in control cells (caspase 3 [8]): 60%
